Target: T1, SugR (Corynebacterium glutamicum, UniProt Q8NP85)
T1 construct: gene Cgl1931; expressed in E. coli ER2566 from pTYB1 (pLGI1, 777 bp sugR without stop codon) as C-terminal intein fusion, tag self-cleaved, no extra residues
T1 sequence (Q8NP85 1-259): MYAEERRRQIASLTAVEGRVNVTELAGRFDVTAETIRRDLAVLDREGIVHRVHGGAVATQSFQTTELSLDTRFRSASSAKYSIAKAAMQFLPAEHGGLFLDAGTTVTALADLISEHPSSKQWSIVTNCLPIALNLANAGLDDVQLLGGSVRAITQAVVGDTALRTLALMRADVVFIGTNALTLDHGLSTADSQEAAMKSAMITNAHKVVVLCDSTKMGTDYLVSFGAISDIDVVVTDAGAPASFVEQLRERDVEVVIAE
Assay: EMSA, release of SugR from Cy3-labelled DNA fragment I2
Assay type: binding
Conditions: negative effector; 15 pmol SugR, 0.05 pmol DNA I2 (ptsI-cg2118 intergenic region), 1 mM MgCl2, pH 7.5, RT; threshold of effect, not an IC50

concentration needed for significant effect: > 10 mM
SMILES: O=P(O)(O)OC[C@H]1OC(O)[C@H](O)[C@@H](O)[C@@H]1O (stereo partly shown) [G-6-P, glucose-6-phosphate]
